Assay results taken from publication PMC11363342 (ACS Central Science, 2024).
Like-named read-outs stand apart in the source and are kept apart here.

How the values were obtained:
SARS-CoV-2 [1] = test: microbe, parasite or virus in culture; assay type: cell-based
in vitro = settings: African green monkey
SARS-CoV-2 [2] = test: Viral load reduction assay in ALI-PBEC; assay type: cell-based; settings: 48 hpi
Procedure: Thus, ALI-PBEC cells were infected with SARS-CoV-2 (10^5 PFU per insert; estimated MOI ∼0.1) and treated with compounds on the apical side of the cells for 2 h. For uninfected controls, PBS was used instead of virus. The compounds were also present in the basal medium during the whole experiment until 48 hpi, when samples were harvested. […] (Figure 4D).
ALI-PBEC were pretreated with compound in the basal medium for 3 h. Cells were infected with 100 000 PFU of SARS-CoV-2/Leiden0008 per insert (estimated MOI 0.1) with compounds present in the inoculum. After 2 h at 37 °C on a rocking platform, the inoculum was removed and cells were washed three times with warm PBS. Compounds stayed present in the basal medium until 48 h postinfection. At 48 hpi the viral load was determined by plaque assay on a 200 μL apical wash (PBS incubated on the apical side of the insets for 10 min at 37 °C). For assessing cytotoxicity with the CyQuant LDH cytotoxicity assay (Thermo Fisher Scientific), 10 μL of apical wash was diluted 5 times with 40 μL of PBS. A 25 μL volume of this dilution was added to 25 μL of assay reagent and incubated for 30 min at RT in the dark. The plate was fixed and measured at a wavelength of 490 nm (Envision reader, PerkinElmer). For the activity-based probe labeling, the insets were washed one more time with PBS and processed as described previously.[52] Briefly, cells were lysed with 60 μL of potassium phosphate buffer per insert. A fluorescently labeled probe (JJB383) was diluted in MclIvaine buffer (pH 7) to a 10 μM stock and incubated for 5 min on ice. For labeling of the cell lysate, 10 μL of lysate was added to 10 μL of MclIvaine buffer and 5 μL of probe. The lysate was incubated for 30 min at 37 °C before the addition of 10 μL of Laemmli sample buffer (4×). Samples were heated at 95 °C for 5 min and separated in a 10% SDS-PAGE gel. Fluorescence was measured at a wavelength of 625 nm (Cy5) with a Uvitec Alliance Q9 imager (BioSPX). After imaging, the gels were stained with GelCode Blue stain reagent (Thermo Fisher Scientific) and visualized using a Uvitec Essential V6 system to check for equal loading.

SARS-CoV-2 [3] = assay type: cell-based
GBA3 = settings: cited from earlier work
[4] = system: recombinant Mus musculus α-Glu II; test: Thermal shift assay (SYPRO orange); assay type: binding; settings: 10 μM Mmα-Glu-II with 50 μM inhibitor; unliganded control 49.9 °C
HCoV-229E = assay type: cell-based
SARS-CoV-2 [5] = test: CPE reduction assay on H1299/ACE2 lung epithelial cells; assay type: cell-based; settings: compared with Vero E6
SARS-CoV-2 [6] = test: Plaque reduction assay on H1299/ACE2 cells (time of treatment); assay type: cell-based; settings: H1299/ACE2; compound 11 at 5 μM
Procedure: To evaluate whether compound 11 has an effect on host proteins (for instance, ACE2) involved in viral entry, we treated monolayers of H1299/ACE2 cells with compound 11 either 48 or 2 h before infection, during infection (0–1 h), or starting from 1 h postinfection (hpi). The cell monolayers were infected with ∼20 PFU of SARS-CoV-2, and after 1 h the inoculum was replaced with an overlay. In one well (Post Infection) the overlay contained compound 11. Remdesivir, a viral RNA synthesis inhibitor, was added to the overlay of another well, as a positive control for blocking virus replication in the cell.
H1299/ACE2 cells were seeded in a 6-well plate at a density of 1.3 × 10^5 cells/well (20% confluency), 96 h prior to infection. […] The monolayers were infected with ∼20 PFU of SARS-CoV-2/Leiden0008. In the postinfection treatment, the compound (or RDV) was added to the Avicel overlay. Cells were incubated for 4 days at 37 °C before fixation and crystal violet staining.

GBA1 = settings: cited from earlier work
GBA2 = settings: cited from earlier work
[7] = Severe acute respiratory syndrome coronavirus 2, Vero C1008, Vero E6 cells, SARS-CoV-2/Leiden0002, n = 3, mean ± SEM, read-out: EC50 (μM), SARS-CoV-2 CPE reduction
[8] = Severe acute respiratory syndrome coronavirus 2, Vero C1008, read-out: EC50 (μM), SARS-CoV-2 CPE reduction

Row | SMILES | EC50 (SARS-CoV-2 [1]; [7]) [µM] | CC50 at 3 days (in vitro) [µM] | other results
1 | CC(C)(C)COCCCCCN1C[C@H](O)[C@@H](O)[C@H](O)[C@H]1CO [Compound 7] | 22.7 ± 4.3 | > 200 | –
2 | CCCCCCOCCCCCN1C[C@H](O)[C@@H](O)[C@H](O)[C@H]1CO [Compound 6] | 11.8 ± 0.8 | > 200 | –
3 | OC[C@H]1C[C@H]2[C@@H]([C@@H](O)[C@@H]1O)N2CCCCCOCc1ccc(-c2ccccc2)cc1 (some centres unmarked) [Compound 24] | – | 200 | EC50 (SARS-CoV-2 [1]; [8]): 28.6 ± 0.21 µM
4 | CO[C@@H]1[C@@H](O)[C@H](O)[C@@H](CO)[C@@H]2OS(=O)(=O)O[C@H]12 [Compound 12] | > 200 | > 200 | –
5 | CO[C@H]1[C@H](O)[C@@H](CO)[C@@H]2OS(=O)(=O)O[C@@H]2[C@@H]1O [Compound 13] | > 200 | > 200 | –
6 | OC[C@H]1C[C@H]2[C@@H]([C@@H](O)[C@@H]1O)N2CCCCCOCc1cccc2ccccc12 (some centres unmarked) [Compound 28] | – | > 200 | EC50 (SARS-CoV-2 [1]; [8]): 56.7 ± 1.38 µM
7 | OC[C@@H]1[C@@H](O)[C@H](O)[C@@H](O)CN1CCCCCOCC1CCCO1 (some centres unmarked) [Compound 4] | 51.7 ± 3.37 | > 200 | –
8 | CCCC(=O)N1[C@@H]2[C@@H](O)[C@H](O)[C@@H](CO)C[C@@H]21 [Compound 25] | 22.2 ± 4.12 | > 200 | –
9 | CO[C@H]1[C@H]2OS(=O)(=O)O[C@H]2[C@H](CO)[C@@H](O)[C@@H]1OC [Compound 16] | > 200 | > 200 | –
10 | CCCCN1C[C@H](O)[C@@H](O)[C@H](O)[C@H]1CO [Compound 1, N-butyl-DNJ, reference compound] | 114 ± 10.3 | > 200 | EC50 (SARS-CoV-2 [1]; Vero E6 cells, SARS-CoV-2/Leiden0002, n = 3, mean ± SEM, read-out: EC50 (μM), SARS-CoV-2 CPE reduction): > 100 µM; viral load in ALI-PBEC (in words) (SARS-CoV-2 [2]; 100 μM (highest concentration)): only a slight effect; reduction of infectious progeny production (in words) (SARS-CoV-2 [3]): only minimally; inhibition of GBA3 (GBA3): inhibits
11 | OC[C@H]1C[C@@H]2O[C@@H]2[C@@H](O)[C@@H]1O [Compound 20] | 17.7 ± 1.28 | > 200 | Tm/°C [4]: 64.7 °C
12 | OC[C@H]1[C@@H](O)[C@H](O)[C@@H](O)CN1CCCCCOCC12CC3CC(CC(C3)C1)C2 [Compound 8] | 104 ± 12.4 | > 200 | –
13 | OC[C@@H]1[C@@H](O)[C@H](O)[C@@H](O)CN1CCCCCOCc1ccc2ccccc2c1 [Compound 2, naphthyl-deoxynojirimycin] | 6 ± 0.4 | > 200 | Tm/°C [4]: 63.5 °C; virus infectivity of HCoV-229E (in words) (HCoV-229E): did not show any reduction in virus infectivity; viral load in ALI-PBEC (in words) (SARS-CoV-2 [2]; 10 and 100 μM): reduced SARS-CoV-2 to similar titers; EC50 values in CPE reduction assay (in words) (SARS-CoV-2 [5]): comparable EC50 values
14 | OC[C@@H]1[C@@H](O)[C@H](O)[C@@H](O)CN1CCCCCOCC12CC3CC(CC(C3)C1)C2 [Compound 5] | 13.9 ± 8 | 200 | –
15 | OC[C@H]1C[C@H]2[C@@H]([C@@H](O)[C@@H]1O)N2CCCCCOCc1ccc2ccccc2c1 (some centres unmarked) [Compound 23] | – | > 200 | EC50 (SARS-CoV-2 [1]; [8]): 64.9 ± 0.77 µM
16 | O=S1(=O)N[C@@H]2[C@H](O)[C@@H](O)[C@H](O)[C@@H](CO)[C@@H]2O1 [Compound 18] | > 100 | > 200 | –
17 | CCC(CC)COC(=O)[C@H](C)N[P@](=O)(OC[C@H]1O[C@@](C#N)(c2ccc3c(N)ncnn23)[C@H](O)[C@@H]1O)Oc1ccccc1 [remdesivir, reference compound] | – | – | plaque formation, treatment after infection (in the overlay) (SARS-CoV-2 [6]): prevented the formation of plaques
18 | O=S1(=O)N[C@H]2[C@H](CO)[C@@H](O)[C@H](O)[C@@H](O)[C@H]2O1 [Compound 17] | 45.3 ± 1.52 | > 200 | –
19 | OC[C@H]1C[C@H]2[C@@H]([C@@H](O)[C@@H]1O)N2CCCCCOCC12CC3CC(CC(C3)C1)C2 (some centres unmarked) [Compound 27] | – | 100 | EC50 (SARS-CoV-2 [1]; [8]): 26.9 ± 1.3 µM
20 | CCCCN1[C@@H]2[C@@H](O)[C@H](O)[C@@H](CO)C[C@@H]21 (some centres unmarked) [Compound 26] | – | > 200 | EC50 (SARS-CoV-2 [1]; [8]): 91.4 ± 20.6 µM
21 | O=S1(=O)N[C@@H]2[C@H](O)[C@@H](O)[C@H](O)[C@@H](CO)[C@@H]2N1 [Compound 19] | > 200 | > 200 | –
22 | OC[C@@H]1[C@@H](O)[C@H](O)[C@@H](O)[C@H]2N[C@@H]12 [Compound 10, 1,6-epi-cyclophellitol aziridine] | 14 ± 3.2 | > 200 | inhibition of GBA1 (GBA1): partially inhibit; inhibition of GBA2 (GBA2): partially inhibit
23 | O=S1(=O)O[C@@H]2[C@@H](O)[C@H](O)[C@@H](CO)C[C@@H]2O1 [Compound 22] | > 200 | > 200 | Tm/°C [4]: 51.7 °C
24 | OC[C@@H]1[C@@H](O)[C@H](O)[C@@H](O)[C@H]2O[C@@H]12 [Compound 9, 1,6-epi-cyclophellitol] | > 200 | > 200 | inhibition of GBA1 (GBA1): partially inhibit; inhibition of GBA2 (GBA2): partially inhibit
25 | OC[C@@H]1[C@@H](O)[C@H](O)[C@@H](O)CN1CCCCCOCc1cc2ccccc2c2ccccc12 [Compound 3] | 3.25 ± 0.42 | – | CC50 (in vitro): 50 µM
26 | CO[C@H]1[C@H](O)[C@@H](O)[C@H]2OS(=O)(=O)O[C@H]2[C@@H]1CO [Compound 14] | 16.9 ± 2.1 | > 200 | –
27 | OC[C@H]1C[C@@H]2N[C@@H]2[C@@H](O)[C@@H]1O [Compound 21] | – | > 200 | Tm/°C [4]: 49.5 °C; EC50 (SARS-CoV-2 [1]; [8]): 67.6 ± 14.8 µM
28 | COCCCCCCCCCN1C[C@H](O)[C@@H](O)[C@H](O)[C@H]1CO [UV-4, reference compound] | – | – | EC50 values in CPE reduction assay (in words) (SARS-CoV-2 [5]): comparable EC50 values
29 | COC[C@@H]1[C@@H](O)[C@H](O)[C@@H](O)[C@H]2OS(=O)(=O)O[C@@H]12 [Compound 15] | > 100 | > 200 | –
